# US20100215588A1, “THERAPEUTIC DELIVERY OF INHIBITORY NUCLEIC ACID MOLECULES TO THE RESPIRATORY SYSTEM” (priority 2007, published 2010)
# “Also recorded” adds a separate entry of the source.
# Assay: Semi-quantitative distribution of I5NP siRNA in lung (hybridization assay)
# Format: in vivo, cynomolgus monkeys
# Method: On Day 15 of the study, two of the available animals (101 and 102) were administered a target dose of 35 mg/kg of a mixture of I5NP and REDD14Cy3.5 (fluorescence-labelled) siRNA via an oronasal mask as a nebulized aerosol generated by the Aeroneb device. A 2.0 L/min dilution airflow was used. The total dose of siRNA administered was calculated, based on the bodyweights and measured respiratory minute volumes of the animals, and on the achieved output of the Aeroneb device using the formulation concentration of 40 mg/mL of siRNA. The administered dose was adjusted by changing the exposure times for the animals
# On Day 35 of the Study, the three remaining main study animals (103 to 105) were administered a target dose of 35 mg/kg of I5NP siRNA via an oronasal mask as a nebulized aerosol generated by the Aeroneb device. A 2.0 L/min dilution airflow was used. The total dose administered was calculated, based on the bodyweights and measured respiratory minute volumes of the animals, and on the achieved output of the Aeroneb device using the formulation concentration of 40 mg/mL. The administered dose was adjusted by changing the exposure times for the animals.
# At the time of necropsy following Treatment 2, the lungs of animal 101 were removed from the animal. The lungs were separated into individual lobes. The bronchi/bronchioles and immediately surrounding regions of each lobe were dissected out as carefully as was practicable and pooled, per lobe. The remaining tissue areas were pooled, per lobe. Each pooled sample (i.e. bronchi/bronchioles and remaining tissue for each lobe) was stored deep-frozen (−80° C.) for analysis via hybridization assay. Lung samples from animal 101 were tracked using the Watson LIMS system.
# At each specified time of necropsy following Treatment 3, the lungs of animals 103, 104 or 105 were removed from the animals. Each set of lungs were separated into individual lobes. The bronchi/bronchioles and immediately surrounding regions of each lobe were dissected out as carefully as was practicable and pooled, per lobe. The remaining tissue areas were pooled, per lobe. […]
# All lung samples from animal 101 (i.e. left cranial lobe, bronchioles and remainder; left caudal lobe, bronchioles and remainder; right cranial lobe, bronchioles and remainder; right middle lobe, bronchioles and remainder; right caudal lobe, bronchioles and remainder and right accessory lobe, bronchioles and remainder) were analyzed for I5NP siRNA concentration. For animals 103, 104 and 105, left cranial lobe (bronchioles and remainder) and right caudal lobe (bronchioles and remainder) were analyzed for I5NP siRNA concentration. […] The results obtained for lung samples were considered as semi-quantitative.
substance,measurement,setting,value
"I5NP: exemplary p53 inhibiting siRNA; sense GAGAAUAUUUCACCCUUCA, antisense UGAAGGGUGAAAUAUUCUC (chemistry not given here)",I5NP concentration in bronchioles and peripheral lung tissues,"Treatment 2 (I5NP:REDD14Cy3.5 9:1), animal 101, approximately 30 minutes post-end of dosing, all 6 lobes, semi-quantitative",found in high concentrations in both bronchioles and in peripheral tissues of all lobes of each lung
same,"I5NP concentration, peripheral tissues versus bronchiolar samples","Treatment 2, animal 101, approximately 30 minutes post-end of dosing",generally higher in the peripheral tissues than in the bronchiolar samples
same,relative concentrations in bronchiolar and peripheral lung tissues over time,"Treatment 3, animals 103, 104, 105, 6, 24 and 72 h post-end of dosing, left cranial and right caudal lobes",still detectible at 72 hours post-end of dosing
same,levels in lungs compared with plasma,all time points post-dose,at all times greater than those in plasma; also recorded: higher than in plasma
